# Laboratory results from PubChem BioAssay (NCI).
#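 Interpolation was linear, between the two tested concentrations surrounding the appropriate level; five concentrations were tested over 48 hours in 96-well plates. TGI: total growth inhibition.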
# How the values were obtained:
# Assay in all cases: NCI tumour cell line growth inhibition, 48 h
# [1] = tested on: UACC-62 melanoma
# [2] = tested on: HL-60(TB) leukemia
# [3] = tested on: SK-MEL-5 melanoma
# [4] = tested on: SF-268 CNS
# [5] = tested on: MALME-3M melanoma
# [6] = tested on: MOLT-4 leukemia
# [7] = tested on: HOP-62 NSCLC
# [8] = tested on: SN12C renal
# [9] = tested on: HCC-2998 colon
# [10] = tested on: SK-MEL-28 melanoma
# [11] = tested on: OVCAR-3 ovarian
# [12] = tested on: NCI-H522 lung
# [13] = tested on: K-562 leukemia
# [14] = tested on: CCRF-CEM leukemia
# [15] = tested on: RPMI-8226 leukemia
# [16] = tested on: MDA-MB-231 breast
# [17] = tested on: MDA-MB-435
# [18] = tested on: HS 578T breast
Compound,TGI [1] [µM],TGI [2] [µM],TGI [3] [µM],TGI [4] [µM],TGI [5] [µM],TGI [6] [µM],TGI [7] [µM],TGI [8] [µM],TGI [9] [µM],TGI [10] [µM],TGI [11] [µM],TGI [12] [µM],TGI [13] [µM],TGI [14] [µM],TGI [15] [µM],TGI [16] [µM],TGI [17] [µM],TGI [18] [µM]
O=S1(=O)OCCOS(=O)(=O)C1I,> 100,> 100,> 100,> 100,> 100,> 100,> 100,> 100,> 100,> 100,> 100,> 100,> 100,> 100,> 100,,,
COC(=O)c1ccc(OCc2ccc3nc(OC)c(OC)nc3c2)cc1,,> 100,> 100,> 100,> 100,,> 100,> 100,> 100,> 100,> 100,> 100,> 100,> 100,> 100,,,
CC(=O)Oc1ccc2c(c1)Oc1cc(C(C)=O)ccc1C21OC(=O)c2ccccc21 (centres undefined),> 100,> 100,> 100,> 100,> 100,> 100,> 100,> 100,> 100,> 100,> 100,> 100,> 100,,> 100,> 100,> 100,
N#Cc1c2ccc([N+](=O)[O-])cc2c(=O)n2c1sc1ccc(C(F)(F)F)cc12,,,> 100,> 100,> 100,> 100,> 100,> 100,,> 100,> 100,> 100,> 100,,> 100,> 100,> 100,
O=C(O)/C=C/n1c2ccccc2c(=O)c2ccccc21,> 100,> 100,,> 100,> 100,> 100,> 100,> 100,> 100,> 100,> 100,> 100,> 100,> 100,> 100,,,
COC(=O)CCCN(C)c1n[nH]c(N)n1,> 100,> 100,> 100,> 100,,> 100,> 100,> 100,> 100,> 100,> 100,,> 100,> 100,> 100,,,
Cc1nc2c(n1CCO)C(=O)c1ccccc1C2=O,30.9,54.2,23.4,> 100,24.2,> 100,74.4,> 100,> 100,> 100,76.2,27.6,58.3,> 100,,,,
COc1cc(C2c3cc4c(cc3OC(NC3CCCCC3)C2C)OCO4)cc(OC)c1OC (centres undefined),43.2,0.675,1.93,28.6,,> 39,> 64.3,> 41.9,4.22,> 100,0.929,2.28,> 21.5,> 100,41.8,2.26,,58.3
